Measurements published in patent publication US7705013B2, “Use of canthin-6-one, plant extracts containing same and derivatives thereof in the treatment of trypanosomiases” (Institut de Recherche pour le Developpement, priority 2002, dated 2010).

Tests used:
Trypanosoma cruzi [1] = assay: In vivo trial on Trypanosoma cruzi in the acute phase, Balb/c mice: parasitological evaluation (parasites in peripheral blood)
Text: (§1) Animals and parasites: The Balb/c-type mice are bred in the animal house of the Health Sciences Research Institute (IICS, Asuncion, Paraguay) and are 6 to 8 weeks old at the time of the experimental protocols.
(§2) For these trials, the CL strain (Brener clone) of T. cruzi is used in the circulating form of the parasite (trypomastigotes). The animals are infected intraperitoneally with 5000 parasites; this strain produces its parasite peak 21 to 25 days after infection. Each week, the number of parasites is verified by means of a blood sample taken from the tail of the mouse.
(§3) Infection and treatment: The treatments with benznidazole, the reference medicinal product, and canthin-6-one begin 11 days after parasitic infection, at a rate of 50 mg/kg or 200 mM/kg for benznidazole and at the concentration of 5 mg/kg or 20 mM/kg for canthin-6-one. The duration of the treatments is fixed at two weeks and the chosen route of administration is oral for benznidazole and canthin-6-one; furthermore, a group of mice is treated with canthin-6-one administered subcutaneously. The untreated and infected mice are given 100 μl of a phosphate buffered saline solution.
(§4) • weekly counting of the number of parasites circulating in the peripheral blood throughout the experiment, i.e. 10 weeks; • observation of mortality; • two serological evaluations: 40 days post-infection, i.e. 15 days after treatment has been stopped, and 68 days post-infection, i.e. 45 days post-treatment. The serological evaluation is carried out by means of a Chagas ELISA assay (enzyme linked immunoassay) kit, IISC, Asuncion. The optical densities are measured with an ELISA plate reader (Titerek, Unistan, I).
(§5) Statistical studies: The mean and the standard deviations of each group are calculated, the differences between the groups are determined by means of the Student's test and the Kruskal-Wallis non-parametric analysis of variance test. The comparisons are carried out between the nontreated group and the treated groups, P<0.05.

Trypanosoma cruzi [2] = assay: In vivo trial on Trypanosoma cruzi in the chronic phase, Balb/c mice: serological evaluation (ELISA)
Text: (§6) The Balb/c-type mice are bred in the animal house of the Health Sciences Research Institute (IICS, Asuncion, Paraguay) and are 6 to 8 weeks old at the time of the experimental protocols. For this experimental protocol, the CL strain (Brener clone) of T. cruzi is used in the circulating form (trypomastigotes), and the strain is maintained in routine culture on an animal model by passage every 14 days. The animals are infected intraperitoneally with 1000 parasites. Under these experimental conditions, the parasites develop slowly; this strain produces a parasite peak 21 to 28 days after infection. The majority of the mice survive (70-80%) with slight deterioration of their general physical condition and with absent or subpatent parasitemia. Each week, the number of parasites is verified by taking a blood sample from the tail of the mouse.
(§7) For this long-duration experiment, the treatments begin 120 days after parasitic infection, when the parasitemia is subpatent in all the mice. The mice are then divided up into groups randomly. The treatments with benznidazole, the reference medicinal product, are administered at a concentration of 50 mg/kg or 200 mM/kg per day for 20 days, orally. Canthin-6-one is administered either orally or subcutaneously at a concentration of 5 mg/kg or 20 mM/kg per day for 20 days. A total dichloromethane extract of Zanthoxylum chiloperone var. angustifolium trunk bark is administered orally or subcutaneously at a concentration of 50 mg/kg per day for 20 days. For administration, the active principles are dissolved in 50 μl of a phosphate buffered saline (PBS) solution. The untreated and infected mice receive 50 μl of PBS.
• Weekly counting of the number of parasites circulating in the peripheral blood throughout the experiment, i.e. […] The serological evaluation is carried out using a Chagas ELISA assay (enzyme linked immunoassay) kit, IISC, Asuncion. The optical densities are measured with an ELISA plate reader (Titerek, Unistan, I). Statistical Studies:
(§8) The mean and the standard deviations of each group are calculated, and the differences between the groups are determined by means of the Student's test and the Kruskal-Wallis non-parametric analysis of variance test. The comparisons are carried out between the untreated group and the treated groups, P<0.05.

Trypanosoma cruzi [3] = assay: In vivo trial on Trypanosoma cruzi in the chronic phase, Balb/c mice: parasitemia and mortality
Text: as §6
as §7, with “For this long-duration experiment, the treatments begin 120 days after parasitic infection, when the parasitemia is subpatent in all the mice.” left out
• Weekly counting of the number of parasites circulating in the peripheral blood throughout the experiment, i.e. 30 weeks. • Observation of mortality. • Three serological evaluations, 45 days before the beginning of treatments, 10 days after treatment has stopped and 75 days post-treatment. The serological evaluation is carried out using a Chagas ELISA assay (enzyme linked immunoassay) kit, IISC, Asuncion. The optical densities are measured with an ELISA plate reader (Titerek, Unistan, I). Statistical Studies:
as §8

Trypanosoma cruzi [4] = assay: In vivo trial on Trypanosoma cruzi in the acute phase, Balb/c mice: serological evaluation (anti-T. cruzi ELISA); settings: for 1st serology (anti-T. cruzi ELISA, optical density): 40 days post-infection, 15 days post-treatment; for 2nd serology (anti-T. cruzi ELISA, optical density): 68 days post-infection, 45 days post-treatment
Text: as §1, §2, §3, §4, §5

With `O=c1ccc2nccc3c4ccccc4n1c23` [canthin-6-one] the “effective dose against Trypanosoma cruzi relative to benznidazole” value (Trypanosoma cruzi [1]; activity assays, general statement) was “doses ten times lower than the doses at which benznidazole is effective”, the “number of parasites ± standard deviation” value (Trypanosoma cruzi [1]; day 4 post-infection (before treatment), 5 mg/kg oral, two weeks from day 11, n = 7) was 0 and the “number of parasites ± standard deviation” value (Trypanosoma cruzi [1]; day 4 post-infection (before treatment), 5 mg/kg subcutaneous, two weeks from day 11, n = 8) was 0. For the same molecule, the “number of parasites ± standard deviation” value (Trypanosoma cruzi [1]; day 11 post-infection (period of treatment), 5 mg/kg oral, n = 7) was 0, the “number of parasites ± standard deviation” value (Trypanosoma cruzi [1]; day 11 post-infection (period of treatment), 5 mg/kg subcutaneous, n = 8) was 0 and the “number of parasites ± standard deviation” value (Trypanosoma cruzi [1]; day 18 post-infection (period of treatment), 5 mg/kg oral, n = 7) was 285 ± 515.9. For the same molecule, the “number of parasites ± standard deviation” value (Trypanosoma cruzi [1]; day 18 post-infection (period of treatment), 5 mg/kg subcutaneous, n = 8) was 766.3 ± 719.2, the “number of parasites ± standard deviation” value (Trypanosoma cruzi [1]; day 25 post-infection (period of treatment), 5 mg/kg oral, n = 7) was 402 ± 837.7 and the “number of parasites ± standard deviation” value (Trypanosoma cruzi [1]; day 25 post-infection (period of treatment), 5 mg/kg subcutaneous, n = 8) was 88.4 ± 142.9. The “number of parasites ± standard deviation” value (Trypanosoma cruzi [1]; day 32 post-infection, 5 mg/kg oral, two weeks from day 11, n = 7) was 426.2 ± 664.5, the “number of parasites ± standard deviation” value (Trypanosoma cruzi [1]; day 32 post-infection, 5 mg/kg subcutaneous, two weeks from day 11, n = 8) was 267.5 ± 546.5 and the “number of parasites ± standard deviation” value (Trypanosoma cruzi [1]; day 39 post-infection, 5 mg/kg oral, two weeks from day 11, n = 7) was 36.6 ± 58.4. For the same molecule, the “number of parasites ± standard deviation” value (Trypanosoma cruzi [1]; day 39 post-infection, 5 mg/kg subcutaneous, two weeks from day 11, n = 8) was 2077.1 ± 2214.2, the “number of parasites ± standard deviation” value (Trypanosoma cruzi [1]; day 45 post-infection, 5 mg/kg oral, two weeks from day 11, n = 7) was 34.4 ± 76.9 and the “number of parasites ± standard deviation” value (Trypanosoma cruzi [1]; day 45 post-infection, 5 mg/kg subcutaneous, two weeks from day 11, n = 8) was 314.1 ± 499.3. For the same molecule, the “number of parasites ± standard deviation” value (Trypanosoma cruzi [1]; day 53 post-infection, 5 mg/kg oral, two weeks from day 11, n = 7) was 58.4 ± 80.6, the “number of parasites ± standard deviation” value (Trypanosoma cruzi [1]; day 53 post-infection, 5 mg/kg subcutaneous, two weeks from day 11, n = 8) was 473.4 ± 921.9 and the “number of parasites ± standard deviation” value (Trypanosoma cruzi [1]; day 60 post-infection, 5 mg/kg oral, two weeks from day 11, n = 7) was 16 ± 35.8. For the same molecule, the “number of parasites ± standard deviation” value (Trypanosoma cruzi [1]; day 60 post-infection, 5 mg/kg subcutaneous, two weeks from day 11, n = 8) was 129.9 ± 194.4, the “number of parasites ± standard deviation” value (Trypanosoma cruzi [1]; day 68 post-infection, 5 mg/kg oral, two weeks from day 11, n = 7) was 0 and the “number of parasites ± standard deviation” value (Trypanosoma cruzi [1]; day 68 post-infection, 5 mg/kg subcutaneous, two weeks from day 11, n = 8) was 34.9 ± 98.6. For the same molecule, the “eradication of Trypanosoma cruzi from the infected organism, acute phase” value (Trypanosoma cruzi [1]; orally 5 mg/kg/d) was “complete eradication of Trypanosoma cruzi from the infected organism”, the “activity compared with benznidazole (50 mg/kg/d), acute phase” value (Trypanosoma cruzi [1]; orally 5 mg/kg/d, from the 39th day after infestation, 15 days after the end of treatment) was “activity that is much greater than the benznidazole” and the “ELISA (optical density ± standard deviation)” value (Trypanosoma cruzi [2]; 10 d post-treatment, 5 mg/kg orally) was 1.621 ± 0.547. For the same molecule, the “ELISA (optical density ± standard deviation)” value (Trypanosoma cruzi [2]; 10 d post-treatment, 5 mg/kg/d subcutaneously) was 1.850 ± 0.405, the “ELISA (optical density ± standard deviation)” value (Trypanosoma cruzi [2]; 43 days before treatment (baseline), 5 mg/kg orally) was 1.878 ± 0.348 and the “ELISA (optical density ± standard deviation)” value (Trypanosoma cruzi [2]; 43 days before treatment (baseline), 5 mg/kg/d subcutaneously) was 1.916 ± 0.368. The “ELISA (optical density ± standard deviation)” value (Trypanosoma cruzi [2]; 75 d post-treatment, 5 mg/kg orally) was 1.799 ± 0.333, the “ELISA (optical density ± standard deviation)” value (Trypanosoma cruzi [2]; 75 d post-treatment, 5 mg/kg/d subcutaneously) was 1.870 ± 0.268 and the “Negative parasitemia/number of surviving mice” value (shortened to “Negative parasitemia/number”) (Trypanosoma cruzi [3]; 0 days post-treatment, 5 mg/kg orally for 20 days) was 7/8. For the same molecule, the “Negative parasitemia/number” value (Trypanosoma cruzi [3]; 0 days post-treatment, 5 mg/kg/d subcutaneously for 20 days) was 6/8, the “Negative parasitemia/number” value (Trypanosoma cruzi [3]; 10 d post-treatment, 5 mg/kg orally for 20 days) was 7/8 and the “Negative parasitemia/number” value (Trypanosoma cruzi [3]; 10 d post-treatment, 5 mg/kg/d subcutaneously for 20 days) was 7/8. The “Negative parasitemia/number” value (Trypanosoma cruzi [3]; 40 d post-treatment, 5 mg/kg orally for 20 days) was 8/8, the “Negative parasitemia/number” value (Trypanosoma cruzi [3]; 40 d post-treatment, 5 mg/kg/d subcutaneously for 20 days) was 6/8 and the “Negative parasitemia/number” value (Trypanosoma cruzi [3]; 60 d post-treatment, 5 mg/kg orally for 20 days) was 8/8. The “Negative parasitemia/number” value (Trypanosoma cruzi [3]; 60 d post-treatment, 5 mg/kg/d subcutaneously for 20 days) was 6/8, the “eradication of Trypanosoma cruzi from the infected organism, chronic phase” value (Trypanosoma cruzi [3]; orally 5 mg/kg/d for 20 days) was “complete eradication of Trypanosoma cruzi from the infected organism” and the “protection of the mice against death, chronic phase” value (Trypanosoma cruzi [3]; orally 5 mg/kg/d for 20 days) was “protects the mice against death”. The “activity compared with benznidazole (50 mg/kg/d), chronic phase” value (Trypanosoma cruzi [3]; orally 5 mg/kg/d for 20 days from the 108th day after parasitic infection, 79 days after the end of the treatment) was “greater activity than benznidazole”, the “1st serology (anti-T. cruzi ELISA, optical density)” value (Trypanosoma cruzi [4]; 5 mg SC) was 0.2151 ± 0.1447 and the “1st serology (anti-T. cruzi ELISA, optical density)” value (Trypanosoma cruzi [4]; 5 mg oral) was 0.1105 ± 0.0387. The “2nd serology (anti-T. cruzi ELISA, optical density)” value (Trypanosoma cruzi [4]; 5 mg SC) was 0.1347 ± 0.6327 and the “2nd serology (anti-T. cruzi ELISA, optical density)” value (Trypanosoma cruzi [4]; 5 mg oral) was 0.3953 ± 0.7531.
